How the values were obtained:
[1] = Storage stability of polymer films containing diazeniumdiolate (NO release after storage); assay type: physicochemical; details: 4 weeks
Description: To determine if polymer films containing such diazeniumdiolates would also remain stable, NO release measurements were conducted for films containing 29 wt. % PVC, 60 wt. % plasticizer (DOS), 4.4 wt. % compound 2d and 6.6 wt. % KTpClPB under two storage conditions: a) room temperature under nitrogen and b) ambient conditions. Initial NO release measurements were performed for freshly prepared films. Additional NO release measurements were conducted for both storage conditions after 1, 2 and 4 weeks. […] The loss of NO may be due in part to the slow decomposition of the diazeniumdiolate within the polymer matrix owing to permeation of water vapor into the polymer film. Although this loss represents a significant percentage of the total NO releasing capability of the film, such films still yield NO surface fluxes higher than that of stimulated endothelial cells (i.e., 4·10^−10 mol·cm^−2·min^−1). However, films stored under a dry nitrogen environment at room temperature maintained 99% of their NO release after a 4-week period.

[2] = Organic phase pH of polymer films monitored with chromoionophore II (UV-Vis); assay type: physicochemical; details: PVC films with 5 wt. % donor, PBS buffer; protonated 650 nm, deprotonated 514 nm
Text: To determine, experimentally, if the pH within the film was changing with time, a lipophilic pH chromoionophore was incorporated into PVC films containing 5 wt. % of 2d, both in the presence and absence of KTpClPB. The intensity of the UV-Vis absorbances corresponding to the protonated (λmax=650 nm) and deprontonated (λmax=514 nm) peaks of the chromoionophore were monitored with time spectrophotometrically. […] This further supports the notion that as NO is being released from within the polymer phase, the unreacted diazeniumdiolate groups may require a buffering system to prevent the film from becoming too basic, which in turn may slow further diazeniumdiolate decomposition.
General Procedure for Deprotection to Form Diamine Copolymer (c). 35 mg of the copolymer (b) was dissolved in 2 mL of dichloromethane and then 200 μL of TFA (trifluoroacetic acid) was added dropwise. The solution was stirred at room temperature for about 3 hours. […] The data was recorded as a concentration of NO in PPB or PPM. The total amount of NO released (in moles) was determined by multiplying a constant (specific to each instrument, units of mol ppm^−1 s^−1) by the time interval that data was collected and the concentration. pH Experiments. […]

theoretical total NO release achieved after storage ([1]; film 29 wt. % PVC, 60 wt. % DOS, 4.4 wt. % donor, 6.6 wt. % KTpClPB, ambient conditions): 62%
NO release maintained after storage ([1]; same film, dry nitrogen environment at room temperature): 99%
Structure (SMILES): CCCCNCCCCCCN(CCCC)/[N+]([O-])=N/O [Compound 2d, (Z)-1-{N-Butyl-N-[6-(N-butylammoniohexyl)amino]}-diazen-1-ium-1,2-diolate]
NO surface flux of films after ambient storage (vs stimulated endothelial cells) ([1]; films stored under ambient conditions): > 4·10^−10 mol·cm^−2·min^−1
change of chromoionophore peaks with exposure time, films containing KTpClPB [2]: the intensity of the protonated peak remains constant
change of chromoionophore peaks with exposure time, films without KTpClPB [2]: an increase in the absorbance of the deprotonated peak and a decrease in the protonated peak
